For data set [1], the target named is Poly [ADP-ribose] polymerase 1 (Homo sapiens, UniProt P09874). The experiment in a line: Inhibition of PARP1 (unknown origin) by ELISA. Background: In an ELISA, binding on a coated surface is turned into a signal by an enzyme label.
A short description of data set [2]: Cytotoxicity against BRCA2 deficient Chinese hamster VC8 cells after 3 days by CCK8 or SRB assay. The conditions noted are these: Cricetulus griseus, V-C8, 72 h. The format is functional, cell-based.
Another data set deals with V79. The experiment in a line: Cytotoxicity against BRCA2 expressing Chinese hamster V79 cells after 3 days by CCK8 or SRB assay. The format is cell-based. The conditions noted are these: Cricetulus griseus, V79, 72 h. For orientation: Tetrazolium assays rely on reduction of a dye to a coloured formazan, in cell work by metabolically active cells.
The test system of another data set is MDA-MB-436. Description: Antiproliferative activity against human MDA-MB-436 cells after 7 days by CCK8 or SRB assay. It is filed as functional, cell-based. The conditions noted are these: MDA-MB-436, 168 h.
The nature of data set [3]: Solubility of the compound in water after 24 hrs by HPLC analysis. It is filed as physicochemical.

Data on 39 molecules can be found in ChEMBL document CHEMBL4130350, “Discovery, mechanism and metabolism studies of 2,3-difluorophenyl-linker-containing PARP1 inhibitors with enhanced in vivo efficacy for cancer therapy” (Eur J Med Chem, 2017).

Sequence of Poly [ADP-ribose] polymerase 1 (P09874 whole entry): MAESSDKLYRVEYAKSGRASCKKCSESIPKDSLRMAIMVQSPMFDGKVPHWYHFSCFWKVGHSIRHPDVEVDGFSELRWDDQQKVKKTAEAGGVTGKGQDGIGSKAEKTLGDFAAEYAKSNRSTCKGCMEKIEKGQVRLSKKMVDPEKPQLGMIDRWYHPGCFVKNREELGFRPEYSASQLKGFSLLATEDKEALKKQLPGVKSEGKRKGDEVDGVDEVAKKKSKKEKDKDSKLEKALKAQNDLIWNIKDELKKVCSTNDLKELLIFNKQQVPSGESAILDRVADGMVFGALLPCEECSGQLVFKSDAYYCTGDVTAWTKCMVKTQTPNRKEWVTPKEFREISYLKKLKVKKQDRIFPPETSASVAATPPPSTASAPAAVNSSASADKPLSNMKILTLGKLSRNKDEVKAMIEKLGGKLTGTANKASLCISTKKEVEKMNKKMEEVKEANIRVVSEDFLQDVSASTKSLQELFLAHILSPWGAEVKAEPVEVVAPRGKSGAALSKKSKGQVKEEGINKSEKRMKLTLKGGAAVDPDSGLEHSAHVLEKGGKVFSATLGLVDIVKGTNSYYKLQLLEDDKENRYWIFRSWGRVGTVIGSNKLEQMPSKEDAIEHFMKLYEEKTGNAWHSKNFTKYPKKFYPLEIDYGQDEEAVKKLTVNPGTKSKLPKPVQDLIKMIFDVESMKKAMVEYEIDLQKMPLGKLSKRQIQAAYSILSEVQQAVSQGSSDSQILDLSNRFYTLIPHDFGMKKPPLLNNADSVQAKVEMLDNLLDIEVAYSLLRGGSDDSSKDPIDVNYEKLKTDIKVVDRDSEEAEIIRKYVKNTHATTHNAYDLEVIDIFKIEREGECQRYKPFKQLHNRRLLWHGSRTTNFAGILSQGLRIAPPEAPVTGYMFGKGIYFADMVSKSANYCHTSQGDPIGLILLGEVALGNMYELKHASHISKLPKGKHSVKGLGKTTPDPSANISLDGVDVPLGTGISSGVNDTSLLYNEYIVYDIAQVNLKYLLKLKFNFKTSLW

Consider `O=C(c1cc(Cc2n[nH]c(=O)c3ccccc23)cc(F)c1F)N1CCN(c2ccc(Cl)cc2)CC1`, for which, in data set [1], the IC50 was determined as 103 nM.

On to `O=C(c1cc(Cc2n[nH]c(=O)c3ccccc23)cc(F)c1F)N1CCN(c2cccc(C(F)(F)F)c2)CC1`, for which the IC50 was 624 nM in data set [2], more than 10 µM in the data set on V79, 23.4 nM in the data set with MDA-MB-436 and 0.8 nM in data set [1].

On to `COc1ccc(N2CCN(C(=O)c3cc(Cc4n[nH]c(=O)c5ccccc45)cc(F)c3F)CC2)cc1`, for which, in data set [1], the concentration for half-maximal inhibition (IC50) was 112 nM.

Regarding `O=C(c1cc(Cc2n[nH]c(=O)c3ccccc23)cc(F)c1F)N1CCN(C(=O)C2CCCO2)CC1` (centres undefined), the IC50 in data set [2] is 68.1 nM; with V79 it was more than 10 µM; in the data set with MDA-MB-436 it was 4.9 nM; in data set [1], 2.4 nM.

`O=C(c1cc(Cc2n[nH]c(=O)c3ccccc23)cc(F)c1F)N1CCN(c2nccs2)CC1`: the IC50 is 137 nM in data set [2], more than 10 µM in the data set on V79, 6.3 nM with MDA-MB-436 and 0.2 nM in data set [1].

Molecule `O=C(c1cc(Cc2n[nH]c(=O)c3ccccc23)cc(F)c1F)N1CCN(c2ncccn2)CC1` yielded a half-inhibitory concentration (IC50) in data set [1] of 2.9 nM.

With `CCCCN1CCN(C(=O)c2cc(Cc3n[nH]c(=O)c4ccccc34)cc(F)c2F)CC1`, the half-inhibitory concentration (IC50) in data set [2] is 149 nM; in the data set on V79, 0.771 µM; with MDA-MB-436, less than 0.03 nM; in data set [1] it was 2.1 nM.

In the case of `N#Cc1cccc(N2CCN(C(=O)c3cc(Cc4n[nH]c(=O)c5ccccc45)cc(F)c3F)CC2)n1`, in data set [1], the concentration for half-maximal inhibition (IC50) was 5.1 nM.

In the case of `O=C(c1cc(Cc2n[nH]c(=O)c3ccccc23)cc(F)c1F)N1CCN(c2nsc3ccccc23)CC1`, the IC50 in data set [1] turned out to be 52.2 nM.

For `Cc1ccc(N2CCN(C(=O)c3cc(Cc4n[nH]c(=O)c5ccccc45)cc(F)c3F)CC2)cc1`, the IC50 is 2080 nM in data set [2], more than 10 µM in the data set with V79, 405 nM with MDA-MB-436 and less than 0.1 nM in data set [1].

`CC(=O)N1CCN(C(=O)c2cc(Cc3n[nH]c(=O)c4ccccc34)cc(F)c2F)CC1` gave an IC50 in data set [1] of 7.1 nM.

On to `O=C(c1cc(Cc2n[nH]c(=O)c3ccccc23)cc(F)c1F)N1CCN(C2CCCCC2)CC1`, for which half-maximal inhibition in data set [1] (IC50) was put at 3.5 nM.

`O=C(c1cc(Cc2n[nH]c(=O)c3ccccc23)cc(F)c1F)N1CCN(c2ccc(Br)cc2)CC1`: the half-inhibitory concentration (IC50) in data set [1] was found to be 83.4 nM.

As to `O=C(c1ccccc1)N1CCN(C(=O)c2cc(Cc3n[nH]c(=O)c4ccccc34)cc(F)c2F)CC1`, the 50% inhibitory concentration (IC50) in data set [1] was 6.1 nM.

Regarding `O=C(c1cc(Cc2n[nH]c(=O)c3ccccc23)cc(F)c1F)N1CCN(c2ccncc2)CC1`, the IC50 in data set [2] is 3290 nM; in the data set with V79, more than 10 µM; with MDA-MB-436, 3.7 nM; in data set [1] it was 0.9 nM.

As for `N#Cc1ccccc1N1CCN(C(=O)c2cc(Cc3n[nH]c(=O)c4ccccc34)cc(F)c2F)CC1`, the half-inhibitory concentration (IC50) in data set [2] was 8.8 nM; with V79 it was 4.34 µM; in the data set on MDA-MB-436 it was less than 0.05 nM; in data set [1] it was 0.02 nM. The molecule further yielded a solubility at 24 h in data set [3] of less than 0.2 µg/mL.

As to `O=C(c1cc(Cc2n[nH]c(=O)c3ccccc23)cc(F)c1F)N1CCN(c2ccc([N+](=O)[O-])cc2)CC1`, the IC50 in data set [2] was 206 nM; in the data set on V79 it was more than 10 µM; with MDA-MB-436 it was 9.4 nM; in data set [1] it was 0.4 nM.

The molecule `COc1ccccc1N1CCN(C(=O)c2cc(Cc3n[nH]c(=O)c4ccccc34)cc(F)c2F)CC1` showed a half-maximal inhibitory concentration (IC50) in data set [1] of 297 nM.

Molecule `O=C(c1cc(Cc2n[nH]c(=O)c3ccccc23)cc(F)c1F)N1CCN(Cc2ccccc2)CC1` yielded a half-inhibitory concentration (IC50) in data set [1] of 96.8 nM.

The molecule `Cc1ccc(Cl)cc1N1CCN(C(=O)c2cc(Cc3n[nH]c(=O)c4ccccc34)cc(F)c2F)CC1` registered a half-inhibitory concentration (IC50) in data set [1] of 324 nM.

Consider `O=C(c1cc(Cc2n[nH]c(=O)c3ccccc23)cc(F)c1F)N1CCN(c2ccccc2O)CC1`, for which the IC50 in data set [2] is 31.7 nM; in the data set on V79 it was 7.83 µM; in the data set with MDA-MB-436, 0.3 nM; in data set [1] it was 0.9 nM.

In data set [1], `O=C(c1cc(Cc2n[nH]c(=O)c3ccccc23)cc(F)c1F)N1CCN(CC2CC2)CC1` showed an IC50 of 9.7 nM.

The molecule `Cc1ccc(C(=O)N2CCN(C(=O)c3cc(Cc4n[nH]c(=O)c5ccccc45)cc(F)c3F)CC2)cc1` yielded a 50% inhibitory concentration (IC50) in data set [1] of 29.1 nM.

On to `O=C(c1cc(Cc2n[nH]c(=O)c3ccccc23)cc(F)c1F)N1CCN(C2CCCC2)CC1`, for which the 50% inhibitory concentration (IC50) was 284 nM in data set [2], more than 10 µM in the data set on V79, 10.6 nM in the data set with MDA-MB-436 and 2.6 nM in data set [1].

`O=C(c1cc(Cc2n[nH]c(=O)c3ccccc23)cc(F)c1F)N1CCN(c2ccccn2)CC1`: the IC50 is less than 3.2 nM in data set [2], 0.924 µM in the data set with V79, less than 0.03 nM with MDA-MB-436 and 0.1 nM in data set [1].

In the case of `O=C(c1cc(Cc2n[nH]c(=O)c3ccccc23)cc(F)c1F)N1CCN(c2ncc(Br)cn2)CC1`, in data set [1], half-maximal inhibition (IC50) was put at 175 nM.

With `O=C(c1cc(Cc2n[nH]c(=O)c3ccccc23)cc(F)c1F)N1CCN(c2cccc(Cl)c2)CC1`, the 50% inhibitory concentration (IC50) in data set [2] was 1600 nM; in the data set on V79, 7.88 µM; in the data set with MDA-MB-436, 396 nM; in data set [1], 4.2 nM.

In the case of `O=C(c1cc(Cc2n[nH]c(=O)c3ccccc23)cc(F)c1F)N1CCN(C(=O)N2CCOCC2)CC1`, the IC50 is 938 nM in data set [2], more than 10 µM with V79, 25.7 nM in the data set on MDA-MB-436 and 2.3 nM in data set [1].

Take `N#Cc1ccc(N2CCN(C(=O)c3cc(Cc4n[nH]c(=O)c5ccccc45)cc(F)c3F)CC2)cc1`: the half-maximal inhibitory concentration (IC50) in data set [1] was found to be 5.4 nM.

In the case of `O=C(c1cc(Cc2n[nH]c(=O)c3ccccc23)cc(F)c1F)N1CCN(C(=O)C2CC2)CC1`, the IC50 in data set [1] was found to be 11.2 nM.

With `O=C(c1cc(Cc2n[nH]c(=O)c3ccccc23)cc(F)c1F)N1CCN(c2ccccc2)CC1`, the IC50 is 1940 nM in data set [2], 6.03 µM in the data set with V79, 82.4 nM in the data set with MDA-MB-436 and 0.5 nM in data set [1].

As for `O=C(c1cc(Cc2n[nH]c(=O)c3ccccc23)cc(F)c1F)N1CCN(c2nccc(Br)n2)CC1`, half-maximal inhibition in data set [1] (IC50) required 110 nM.

Regarding `O=C(c1cc(Cc2n[nH]c(=O)c3ccccc23)cc(F)c1F)N1CCN(c2ccc(F)cc2)CC1`, the half-inhibitory concentration (IC50) worked out at 90.1 nM in data set [2], 2.85 µM in the data set on V79, 10.8 nM in the data set with MDA-MB-436 and 0.4 nM in data set [1].

Turning to `O=C(c1cc(Cc2n[nH]c(=O)c3ccccc23)cc(F)c1F)N1CCN(c2ccccc2F)CC1`, the IC50 in data set [1] worked out at 55.8 nM.

For the molecule `O=C(c1cc(Cc2n[nH]c(=O)c3ccccc23)cc(F)c1F)N1CCN(c2ccc(O)cc2)CC1`, the 50% inhibitory concentration (IC50) in data set [2] was 3970 nM; in the data set on V79 it was more than 10 µM; in the data set on MDA-MB-436, 27.1 nM; in data set [1], 0.6 nM.

As to `CCN1CCN(C(=O)c2cc(Cc3n[nH]c(=O)c4ccccc34)cc(F)c2F)CC1`, the concentration for half-maximal inhibition (IC50) in data set [2] is 987 nM; in the data set with V79, more than 10 µM; in the data set on MDA-MB-436 it was 12.9 nM; in data set [1] it was 1.4 nM.

The molecule `O=C(c1cc(Cc2n[nH]c(=O)c3ccccc23)cc(F)c1F)N1CCN(Cc2cccnc2)CC1` displayed a concentration for half-maximal inhibition (IC50) in data set [1] of 157 nM.

As for `O=C(c1cc(Cc2n[nH]c(=O)c3ccccc23)cc(F)c1F)N1CCN(C2CCCCCC2)CC1`, the half-inhibitory concentration (IC50) is 42.6 nM in data set [2], more than 10 µM in the data set on V79, 6 nM in the data set on MDA-MB-436 and 0.8 nM in data set [1].

In data set [1], `O=C(c1cc(Cc2n[nH]c(=O)c3ccccc23)cc(F)c1F)N1CCN(c2ncc(C(F)(F)F)cn2)CC1` returned an IC50 of 70.5 nM.

Broadly, the IC50 is the midpoint of a concentration-inhibition curve. Higher therefore signals a need for much substance. The solubility is the concentration that dissolves in the medium under given conditions. The low end stands for a poorly soluble substance, the high end for a readily soluble substance.
